# Measurements reported in patent publication US5279956A, “Activated protein C polypeptides and anti-peptide antibodies, diagnostic methods and systems for inhibiting activated protein C” (The Scripps Research Institute, priority 1991, dated 1994).
# Entries after “also recorded” stand apart in the source; their conditions may differ. No end group written: not given here.
# Test system: anti-(390-404) antibody
# Assay: Solid-phase ELISA: binding of anti-(390-404) antibody to immobilized peptides and PC
# Parameters: species or system rabbit
# Method: To determine the immunospecificity of the rabbit antisera obtained in Example 2b, ELISA assays were performed. Briefly, 50 μl of either 50 μM peptide-(390-404) prepared in Example 1 or 10 μg/ml of PC or APC prepared in Example 2c in a buffer consisting of 0.05M sodium carbonate (Na2 CO3) and 0.02% NaN3 at pH 9.0 were admixed into the wells of microtiter plates. The plates were maintained at 37° C. for one hour to permit the antigens to become operatively affixed to the well walls. After washing the antigen-coated wells with TBS, the wells were blocked with 250 μl/well of 10% bovine serum albumin (BSA) (Sigma) in TBS for one hour at 22° C. The blocking solution was then removed and the wells were subsequently washed five times with 250 μl/well of maintenance buffer (0.05M Tris-HCl, 0.1M NaCl, 0.02% NaN3, 1 mg/ml BSA, 5 mM CaCl2, 0.01% Tween 20 at pH 7.4). Fifty μl of rabbit non-immune or specific antiserum serially diluted in maintenance buffer was then admixed to the washed wells and maintained for one hour at 37° C. to allow formation of a solid liquid phase immunoreaction products. The wells were then washed three times with maintenance buffer followed by admixture of 50 μl of 2.0 μg/ml of secondary antibody (polyclonal biotinylated goat-anti-rabbit-IgG) (Pierce Biochemicals) diluted in maintenance buffer to each well for the detection of immunoreactant products. The plates were maintained for 1 hour at 37° C. after which time the secondary antibody solution was removed. After washing the wells as described above, 50 μl of 2.0 μg/ml streptavidin-alkaline-phosphatase (Pierce Biochemicals) in maintenance buffer was admixed into each well and maintained for 30 minutes at 37° C. Detection of specific immunoreaction products was obtained by admixture of 150 μl/well of 5 mg/ml p-nitrophenylphosphate (PNPP) (Pierce Biochemicals) in 0.1M diethanolamine and 0.02% NaN3 at pH 9.6 followed by measurement of the change in absorbance at 405 nm over time using the EL312 Microplate Bio-Kinetics Reader and the KinetiCalc Software Program (Biotek Instruments, Inc., Vt.). Non-specific binding was considered as the measured absorbance in 10% BSA blocked wells which served as negative controls without the preceding coating of a specific protein or peptide. Under the described conditions, non-specific binding never exceeded more than 5% of the specific binding.
# The specificity of immunoaffinity purified anti-(390-404) antibody towards peptide-(390-404) and PC was evaluated by measuring the binding in solid-phase ELISA of the antibody to immobilized peptides including -(384-398), -(390-404), -(396-410), -(404-390), and -K395A-(390-404) listed in Table 1 with their corresponding SEQ ID NO, and to PC. […]
substance,measurement,setting,value
"SGLLHNYGVYTKVSR-NH2 [peptide-(384-398), -SGLLHNYGVYTKVSR]",binding of anti-(390-404) antibody to immobilized peptide or PC,solid-phase ELISA,did not bind significantly; also recorded: did not significantly bind
same,Anti-(390-404) (Absorbance/20 min.),"wells coated with 50 μM peptide or 10 μg/ml PC, 2 μg/ml anti-(390-404) antibody, mean of duplicates",3 Absorbance/20 min.
